Experimental data reported in patent US9073919B2, “Pyrazolo pyridine derivatives as NADPH oxidase inhibitors” (GENKYOTEX SA, priority 2007, dated 2015).

Experiments:
Format in all cases: cell-based, human
NOX [1] = experiment: Amplex Red, extracellular hydrogen peroxide, DMSO-differentiated HL60 cells; details: DPI 10 μM, % of the activity in control cells, 'usually'
Method: Human acute myeloid leukemia cell line HL-60 was cultured in RPMI 1640 (Invitrogen) supplemented with 10% heat-inactivated calf serum, 2 mM glutamine, 100 U/mL penicillin (Sigma), and 100 μg streptomycin (Sigma) at 37° C. under a humidified atmosphere of 5% CO2. HL60 differentiation to the neutrophil phenotype was triggered by adding Me2SO (final concentration 1.25% v/v for 6 days) to the culture medium.
(§1) Extracellular hydrogen peroxide was measured using Amplex UltraRed (Molecular Probes). Cells were trypsinized (1× Trypsin-EDTA), collected by centrifugation, and resuspended in HBSS supplemented with 1% glucose. Cells were seeded into black 96-well plates at a density of 50,000 cells in 200 μl testing buffer (HBSS 1% glucose containing 0.005 U/mL horseradish peroxidase (Roche) and 50 μM Amplex Red in the presence or absence of compounds according to the invention. As a control, DPI was included at a final concentration of 10 μM The plates were placed in the fluorescent Optima Fluorescent plate reader and kept at 37° C. during 20 min. Fluorescence was measured for […] with excitation and emission wavelengths of 544 nm and 590 nm respectively. NOX activities were expressed as % of the activity in control cells. Residual activity of DPI-treated cells was usually <10%.

NOX [2] = experiment: Chemiluminescence (luminol) ROS measurement in cells; details: % of the activity in control cells, 'usually'
Method: as §1
ROS was measured using the chemiluminescent probe luminol. Cells were cultured and plated as for Amplex Red except that the Amplex Red agent was replaced by 10 μg/mL luminol (Sigma 09235). Light emission was recorded continuously at 37° C. for 60 minutes using the luminescence function of the FluoStar Optima fluorescent plate reader. The mean of the four blank values was subtracted from each corrected value for each time point. NOX activities were expressed as % of the activity in control cells. […]

NOX [3] = experiment: Nitroblue tetrazolium (NBT) superoxide test in cells; details: DPI 10 μM, % of the activity in control cells, 'usually'
Method: Human microglia cell line (HMC3, human microglia clone 3) (Janabi et al, 1995, Neurosci Lett 195:105) were cultured in MEM (Eagle's minimum essential medium) containing 10% FBS with 50 U/ml penicillin G sodium 50 μg/ml streptomycin sulfate, and incubated at 37° C. for 24 hours. IFN-γ (human IFN-γ, Roche. 11 040 596 001) was added to the culture medium for a final concentration of 10 ng/ml 24 h, before detection of O2^− formation. […]
Intracellular and extracellular superoxide was measured by a colorimetric technique using a quantitative nitroblue tetrazolium (NBT) test. SOD-inhibitable conversion of NBT to formazan, a fine blue precipitate, in the presence of superoxide anion was measured using Fluostar Optima spectrometer (BMG labtech). […] The absorption was measured at 630 nm. For calculation, the absorbance at 630 nm was normalized for each individual well. […] NOX activities were expressed as % of the activity in control cells. […]

NOX [4] = experiment: H2DCF-DA fluorescence in TGF-β stimulated HUVEC; details: % of the activity in control cells, 'usually'
Method: HUVEC are cultured in endothelial basal medium supplemented with hydrocortisone (1 μg/mL, CalbioChem), bovine brain extract (12 μg/mL), gentamicin (50 μg/mL, CalbioChem), amphotericin B (50 ng/mL, CalBioChem EGF (10 ng/mL, and 10% FCS until the fourth passage. When the fifth passage was started, cells were cultured with a lower concentration of FCS (2%) in the absence of EGF, if not indicated otherwise. All experiments were done with cells of the fifth passage. The cells were incubated with OxLDL (oxidized low-density lipoprotein) or its buffer as control for 24 h, before detection of O2^− formation.
HUVEC were plated on coverslips and made quiescent overnight in 0.5% BSA before stimulation with TGF-β. Cells were loaded for 10 minutes with 5 μM CM-H2DCFDA in phenol-red-free medium in the dark and then treated with TGF-β (R&D Systems) in the presence or absence of compounds according to the invention. Cells were then visualized by immunofluorescence microscopy after fixation and staining of the nuclei with DAPI or examined live using confocal microscopy. DCF fluorescence was visualized at an excitation wavelength of 488 nm and emission at 515 to 540 nm. […] For calculation, the absorbance at […] was normalized to absorbance at […] for each individual well. […] NOX activities were expressed as % of the activity in control cells. […]

Measured: Residual activity of DPI-treated cells

c1ccc([I+]c2ccccc2)cc1 [DPI, Diphenyl-iodonium]
< 10%: all assays above
